Legend:
Experiment in all cases: In vitro antibacterial activity, agar dilution MIC
Type in all cases: cell-based
[1] = test system: Micrococcusluteus ATCC 4698; details: code PP: Micrococcusluteus ATCC 4698; BHI agar, 35-37° C., 20 to 24 hours; unit assumed
Procedure: (§1) Representative compounds of the present invention were assayed in vitro for antibacterial activity as follows: Twelve petri dishes containing successive aqueous dilutions of the test compound mixed with 10 mL of sterilized Brain Heart Infusion (BHI) agar (Difco 0418-01-5) were prepared. Each plate was inoculated with 1:100 (or 1:10 for slow-growing strains, such as Micrococcus and Streptococcus) dilutions of up to 32 different microorganisms, using a Steers replicator block. The inoculated plates were incubated at 35-37° C. for 20 to 24 hours. In addition, a control plate, using BHI agar containing no test compound, was prepared and incubated at the beginning and end of each test.
(§2) An additional plate containing a compound having known susceptibility patterns for the organisms being tested and belonging to the same antibiotic class as the test compound was also prepared and incubated as a further control, as well as to provide test-to-test comparability. Erythromycin A was used for this purpose.
(§3) After incubation, each plate was visually inspected. The minimum inhibitory concentration (MIC) was defined as the lowest concentration of drug yielding no growth, a slight haze, or sparsely isolated colonies on the inoculum spot as compared to the growth control.

[2] = test system: Nocardia Asteroides ATCC 99700; details: code VV: Nocardia Asteroides ATCC 99700; BHI agar, 35-37° C., 20 to 24 hours; unit assumed
Procedure: as §1, §2, §3

[3] = test system: Escherichiacoli SS; details: code RR: Escherichiacoli SS; BHI agar, 35-37° C., 20 to 24 hours; unit assumed
Procedure: as §1, §2, §3

[4] = test system: Staphylococcus aureus A-5177; details: code BB: Staphylococcus aureus A-5177; BHI agar, 35-37° C., 20 to 24 hours; unit assumed
Procedure: as §1, §2, §3

[5] = test system: Streptococcus pyogenes EES61; details: code LL: Streptococcus pyogenes EES61; BHI agar, 35-37° C., 20 to 24 hours; unit assumed
Procedure: as §1, §2, §3

[6] = test system: Streptococcus Pneumonia 5649; details: code ZA: Streptococcus Pneumonia 5649; BHI agar, 35-37° C., 20 to 24 hours; unit assumed
Procedure: as §1, §2, §3

[7] = test system: Staphylococcus aureus A-5278; details: code CC: Staphylococcus aureus A-5278; BHI agar, 35-37° C., 20 to 24 hours; unit assumed
Procedure: as §1, §2, §3

[8] = test system: Streptococcus Pneumonia GYR 1171; details: code YY: Streptococcus Pneumonia GYR 1171; BHI agar, 35-37° C., 20 to 24 hours; unit assumed
Procedure: as §1, §2, §3

[9] = test system: Staphylococcus aureus 1775; details: code GG: Staphylococcus aureus 1775; BHI agar, 35-37° C., 20 to 24 hours; unit assumed
Procedure: as §1, §2, §3

[10] = test system: Streptococcus pyogenes 930; details: code MM: Streptococcus pyogenes 930; BHI agar, 35-37° C., 20 to 24 hours; unit assumed
Procedure: as §1, §2, §3

[11] = test system: Haemophilislnfluenzae DILL AMP R; details: code WW: Haemophilislnfluenzae DILL AMP R; BHI agar, 35-37° C., 20 to 24 hours; unit assumed
Procedure: as §1, §2, §3

[12] = test system: Streptococcus bovis A-5169; details: code JJ: Streptococcus bovis A-5169; BHI agar, 35-37° C., 20 to 24 hours; unit assumed
Procedure: as §1, §2, §3

[13] = test system: Streptococcus pyogenes PIU 2548; details: code NN: Streptococcus pyogenes PIU 2548; BHI agar, 35-37° C., 20 to 24 hours; unit assumed
Procedure: as §1, §2, §3

[14] = test system: Escherichiacoli JUHL; details: code QQ: Escherichiacoli JUHL; BHI agar, 35-37° C., 20 to 24 hours; unit assumed
Procedure: as §1, §2, §3

[15] = test system: Staphylococcus aureus NCTC 10649M; details: code EE: Staphylococcus aureus NCTC 10649M; BHI agar, 35-37° C., 20 to 24 hours; unit assumed
Procedure: as §1, §2, §3

[16] = test system: Staphylococcus aureus ATCC 6538P; details: code AA: Staphylococcus aureus ATCC 6538P; BHI agar, 35-37° C., 20 to 24 hours; unit assumed
Procedure: as §1, §2, §3

[17] = test system: Staphylococcus epidermidis 3519; details: code HH: Staphylococcus epidermidis 3519; BHI agar, 35-37° C., 20 to 24 hours; unit assumed
Procedure: as §1, §2, §3

[18] = test system: Candida albicans CCH 442; details: code TT: Candida albicans CCH 442; BHI agar, 35-37° C., 20 to 24 hours; unit assumed
Procedure: as §1, §2, §3

[19] = test system: Mycobacterium smegmatis ATCC 114; details: code UU: Mycobacterium smegmatis ATCC 114; BHI agar, 35-37° C., 20 to 24 hours; unit assumed
Procedure: as §1, §2, §3

[20] = test system: Streptococcus Pneumonia ATCC 6303; details: code XX: Streptococcus Pneumonia ATCC 6303; BHI agar, 35-37° C., 20 to 24 hours; unit assumed
Procedure: as §1, §2, §3

[21] = test system: Streptococcus agalactiae CMX 508; details: code KK: Streptococcus agalactiae CMX 508; BHI agar, 35-37° C., 20 to 24 hours; unit assumed
Procedure: as §1, §2, §3

[22] = test system: Streptococcus Pneumonia 5979; details: code ZZ: Streptococcus Pneumonia 5979; BHI agar, 35-37° C., 20 to 24 hours; unit assumed
Procedure: as §1
An additional plate containing a compound having known susceptibility patterns for the organisms being tested and belonging to the same antibiotic class as the test compound was also prepared and incubated as a further control, as well as to provide test-to-test comparability.
as §3

Row | SMILES | Antibacterial Activity (MIC) [1] | Antibacterial Activity (MIC) [2] | Antibacterial Activity (MIC) [3] | Antibacterial Activity (MIC) [4] | Antibacterial Activity (MIC) [5] | Antibacterial Activity (MIC) [6] | Antibacterial Activity (MIC) [7] | Antibacterial Activity (MIC) [8] | Antibacterial Activity (MIC) [9] | Antibacterial Activity (MIC) [10] | Antibacterial Activity (MIC) [11] | Antibacterial Activity (MIC) [12] | Antibacterial Activity (MIC) [13] | Antibacterial Activity (MIC) [14] | Antibacterial Activity (MIC) [15] | Antibacterial Activity (MIC) [16] | Antibacterial Activity (MIC) [17] | Antibacterial Activity (MIC) [18] | Antibacterial Activity (MIC) [19] | Antibacterial Activity (MIC) [20] | other results
1 | CCC1OC(=O)C(C)C(=O)C(C)C(OC2OC(C)CC(N(C)C)C2O)C(C)(OCC=Cc2cnc3ccccc3c2)CC(C)CN(C)C(C)C2OC(=O)OC12C (centres unmarked) [Example 6, Compound of formula (II): R^1 is —CH2CH═CH-(3-quinolinyl), R^2 and R^3 together are oxo, R^4 and R^5 together are —C(O)—, R^6 is methyl, R^8 is hydrogen] | 0.39 µg/mL | 0.1 µg/mL | 0.78 µg/mL | 12.5 µg/mL | 0.05 µg/mL | 8 µg/mL | > 100 µg/mL | 0.03 µg/mL | > 100 µg/mL | > 100 µg/mL | 4 µg/mL | 0.02 µg/mL | 6.2 µg/mL | 50 µg/mL | 0.39 µg/mL | 0.2 µg/mL | 0.2 µg/mL | > 100 µg/mL | 6.2 µg/mL | 0.06 µg/mL | Antibacterial Activity (MIC) [21]: 0.05 µg/mL; Antibacterial Activity (MIC) [22]: > 128 µg/mL
2 | CCC1OC(=O)C(C)C(OC2CC(C)(OC)C(O)C(C)O2)C(C)C(OC2OC(C)CC(N(C)C)C2O)C(C)(OCC=Cc2cnc3ccccc3c2)CC(C)CN(C)C(C)C(O)C1(C)O (centres unmarked) [Example 7, Compound of formula (I): R^1 is —CH2CH═CH-(3-quinolinyl), R^4 is hydrogen, R^5 is hydrogen, R^6 is methyl, R^7 is hydrogen, R^8 is hydrogen] | 0.2 µg/mL | 0.05 µg/mL | 0.39 µg/mL | 3.1 µg/mL | 0.05 µg/mL | 16 µg/mL | > 100 µg/mL | 0.12 µg/mL | > 100 µg/mL | > 100 µg/mL | 8 µg/mL | 0.1 µg/mL | 6.2 µg/mL | 100 µg/mL | 0.39 µg/mL | 0.1 µg/mL | 0.2 µg/mL | > 100 µg/mL | 6.2 µg/mL | 0.12 µg/mL | Antibacterial Activity (MIC) [21]: 0.1 µg/mL; Antibacterial Activity (MIC) [22]: > 128 µg/mL

From patent US6764996B1, “9a-azalides with antibacterial activity” (Abbott Laboratories, priority 1999, dated 2004)
